In publication PMC5923120, “Acylhydrazones as Antifungal Agents Targeting the Synthesis of Fungal Sphingolipids” (Antimicrobial Agents and Chemotherapy, 2018):
Converted amounts (≈) assume the structure as drawn. Where two headings read alike, the source gives them in different places.

Experiments:
[1] = system: Cryptococcus neoformans H99; test: Synergistic assay (FIC), CN; assay type: cell-based
Protocol: (§1) Synergistic activity was assayed by calculating the fractional inhibitory index (FIC). Briefly, in a 96-well plate, drug A (D13) was serially diluted from 16 to 0.015 μg/ml (11 dilutions), whereas drug B (either fluconazole, amphotericin B, caspofungin, itraconazole, or voriconazole) was serially diluted from 12 to 0.19 μg/ml for fluconazole, 5 to 0.078 μg/ml for amphotericin B, or 8 to 0.007 μg/ml for caspofungin, itraconazole, or voriconazole (seven dilutions). The FIC was defined as (MIC combined/MIC drug A alone) + (MIC combined/MIC drug B alone). Synergism was categorized with the following scale: strongly synergistic effect, FIC of <0.5; synergistic effect, FIC of <1; additive effect, FIC of 1; no effect, FIC between 1 and 2; antagonistic effect, FIC of >2.

in vitro [2] = conditions: monkey
Excerpt: A commercially available kit was used to examine permeability through the blood-brain barrier (BBB kit MBT-24; Pharmaco Cell Co. Ltd.). This kit allows us to perform a permeability assay using an in vitro reproduction of the blood-brain barrier using monkey brain. Briefly, in a 12-well plate there is a triple culture, with endothelial cells in the luminal part and perycites and astrocytes in the abluminal side connected by tight junctions. The luminal side of the well represents the blood side, whereas the abluminal side represents the brain side. The integrity of the blood-brain barrier is assessed by the measurement of TEER, which indicates the formation of tight junctions. To have an efficient system, the TEER should be >150 Ω cm^2. The kit is kept frozen at −80°C until it is ready to use. […] After that it takes 3 days for the cells to adjust, and then the plate can be used in 4 days for the experiment. For drug testing, after assessing the TEER, the drugs were added in the chosen medium at the desired concentrations and at different time points. At the end of each time point the TEER was measured to assess if the BBB was still intact. After that the medium was collected and subjected to MS to measure the concentration of the samples in the brain side and calculate the permeability value (Papp).

Candida krusei = test: Synergistic assay (FIC), CK Flu R1; assay type: cell-based; conditions: Pichia kudriavzevii
Protocol: as §1

Candida albicans A39 = test: Synergistic assay (FIC), CA; assay type: cell-based
Protocol: as §1

Candida krusei ATCC 6258 = test: Synergistic assay (FIC), CK Flu R2; assay type: cell-based; conditions: Pichia kudriavzevii, ATCC6258
Protocol: as §1

Candida albicans 3022 = test: Synergistic assay (FIC), CA Flu-R; assay type: cell-based; conditions: Candida albicans, 3022; CA Flu-R
Protocol: as §1

J774 = test: In vitro toxicity (MTT), J774; assay type: cell-based, murine; conditions: Mus musculus, cytotoxicity
Protocol: (§2) The murine macrophage cell line J774 and human cancer cell lines A549 and HepG2 were maintained in DMEM containing 10% fetal bovine serum (FBS) and 1% penicillin-streptomycin. At passage 7, 10^5 cells/well in DMEM containing 10% FBS were transferred into 96-well plates and cultured for 14 h for the cells to adhere to the wells. The compounds were added to the cells at concentrations ranging from 0.03 to 128 μg/ml. The wells without the compound served as controls. […] After 24 or 48 h, the supernatant was removed and 50 μl of 5-mg/ml 3-(4,5-dimethylthiazol-2-yl)-2,5-diphenyltetrazoliumbromide (MTT) solution in phosphate-buffered saline (PBS) was added to each well. The plates were incubated for an additional 4 h. The formazan crystal formed inside the cell was dissolved by adding 50 μl of dimethyl sulfoxide (DMSO). The optical density was measured at 570 nm.

A549 = test: In vitro toxicity (MTT), A549; assay type: cell-based; conditions: Homo sapiens, cytotoxicity
Protocol: as §2

C. neoformans [3] = test: In vitro susceptibility testing (MIC80); assay type: cell-based, Cryptococcus neoformans
Protocol: MICs were determined by following the methods of the Clinical and Laboratory Standards Institute (CLSI), with modifications. […] The compounds were serially diluted from 32 to 0.03 μg/ml in a 96-well plate. The inoculum was prepared as described in CLSI protocol M27A3 guidelines ([39]). […] The MICs were determined as the lowest concentration of the compound that inhibited 80% of growth compared to the control.

HepG2 = test: In vitro toxicity (MTT), HepG2; assay type: cell-based; conditions: Homo sapiens, cytotoxicity
Protocol: as §2

C. neoformans [4] = test: In vitro killing assay; conditions: for K100*: minimum concentration that kills 100% of C. neoformans cells in 48 h
Protocol: C. neoformans cells from a culture grown overnight were washed in PBS and resuspended in YNB buffered with HEPES at pH 7.4. The cells were counted, and 2 × 10^4 cells were incubated with different concentrations of the drugs in a final volume of 10 ml with a final concentration of 0.5% DMSO. The tubes were then incubated at 37°C with 5% CO2 on a rotary shaker at 200 rpm. Aliquots were taken at the time points indicated and diluted, and 100-µl portions were plated onto YPD plates.

Caco-2 permeability = conditions: human
Protocol: (§3) The Caco-2 permeability studies were performed as follows. (i) For the preparation of Caco cells, 50-μl and 25-ml volumes of cell culture medium were added to each well of the Transwell insert and reservoir, respectively. The HTS Transwell plates then were incubated at 37°C, 5% CO2 for 1 h before cell seeding. […] (ii) For the preparation of stock solutions, 10 mM stock solutions of test compounds were prepared in DMSO. The stock solutions of positive controls were prepared in DMSO at a concentration of 10 mM. Digoxin and propranolol were used as control compounds in this assay. (iii) For the assessment of cell monolayer integrity, medium was removed from the reservoir and each Transwell insert and replaced with prewarmed fresh culture medium. Transepithelial electrical resistance (TEER) across the monolayer was measured using a Millicell epithelial volt-Ohm measuring system (Millipore, USA). The plate was returned to the incubator once the measurement was done. The TEER value was calculated according to the following equation: TEER measurement (ohms) × area of membrane (cm^2) = TEER value (ohm · cm^2). The TEER value should be greater than 230 Ω · cm^2, which indicates a well-qualified Caco-2 monolayer. (iv) The assay was performed as follows. The Caco-2 plate was removed from the incubator and washed twice with prewarmed Hanks' balanced salt solution (HBSS; with 10 mM HEPES, pH 7.4) and then incubated at 37°C for 30 min. The stock solutions of control compounds were diluted in DMSO to get 1 mM solutions and then diluted with HBSS (10 mM HEPES, pH 7.4) to get 5 μM working solutions. The stock solutions of the test compounds were diluted in DMSO to get 1 mM solutions and then diluted with HBSS (10 mM HEPES, pH 7.4) to get 5 μM working solutions. The final concentration of DMSO in the incubation system was 0.5%. To determine the rate of drug transport in the apical to basolateral direction, 75 μl of 5 μM working solution of test compound was added to the Transwell insert (apical compartment), and the wells in the receiver plate (basolateral compartment) were filled with 235 μl of HBSS (10 mM HEPES, pH 7.4). To determine the rate of drug transport in the basolateral to apical direction, 235 μl of 5 μM working solution of test compound was added to the receiver plate wells (basolateral compartment), and then the Transwell inserts (apical compartment) were filled with 75 μl of HBSS (10 mM HEPES, pH 7.4). Time zero samples were prepared by transferring 50 μl of 5 μM working solution to wells of the 96-deep-well plate, followed by the addition of 200 μl cold acetonitrile or methanol containing appropriate IS. The plates were incubated at 37°C for 2 h. At the end of the incubation, 50-μl samples from donor sides (apical compartment for AP→BL flux and basolateral compartment for BL→AP) and receiver sides (basolateral compartment for AP→BL flux and apical compartment for BL→AP) were transferred to wells of a new 96-well plate, followed by the addition of 4 volumes of cold acetonitrile or methanol containing appropriate IS. […] An aliquot of 100 μl of the supernatant was mixed with an appropriate volume of ultrapure water before LC-MS/MS analysis. To determine the Lucifer yellow leakage after a 2-h transport period, a stock solution of Lucifer yellow was prepared in ultrapure water and diluted with HBSS (10 mM HEPES, pH 7.4) to reach a final concentration of 100 μM. One hundred microliters of the Lucifer yellow solution was added to each Transwell insert (apical compartment), followed by filling the wells in the receiver plate (basolateral compartment) with 300 μl of HBSS (10 mM HEPES, pH 7.4). The plates were incubated at 37°C for 30 min, and 80-μl samples were removed directly from the apical and basolateral wells (using the basolateral access holes) and transferred to wells of new 96-well plates.

[5] = system: Aspergillus fumigatus 293; test: Synergistic assay (FIC), AF; assay type: cell-based
Protocol: as §1

in vitro [6] = conditions: human
Protocol: as §3

C. neoformans [7] = test: Mouse model of cryptococcosis; assay type: in vivo, mice
C. albicans = test: Mouse model of invasive candidiasis; assay type: in vivo, mice; conditions: oral gavage 20 mg/kg/day
Aspergillus fumigatus = test: Mouse model of invasive pulmonary aspergillosis; assay type: in vivo, mice; conditions: oral 20 mg/kg/day
Protocol: For survival study, 8-week-old CBA/J (Envigo) male mice were used. They were divided into sets of 10 mice for each treatment or control group. The day prior to infection, the mice were immunosuppressed by using triamcinolone acetonide (1 mg/mouse) subcutaneously ([40]). On day 0, mice were infected intranasally with 20 μl of a suspension containing 2 × 10^4 conidia of A. fumigatus strain Af293 and were treated through gavage with 20 mg/kg/day of BHBM, D13, or voriconazole (as a drug control) in a final volume of 100 μl of 30% PEG in saline buffer. The untreated control group mice received 100 μl of 30% PEG in saline buffer. Mice were fed ad libitum and were given 50% grapefruit juice in place of normal drinking water to avoid the liver metabolism of the drugs ([41]). Mice were monitored every day for discomfort and sacrificed subsequently.

[8] = Cryptococcus neoformans, ChemBridge compounds, Supplementary Table 1, read-out: MIC80
[9] = lowest concentration inhibiting 80% of growth

Q: Which MIC [1] does the source give for `C[C@@H]1[C@H](O)[C@@H](C)/C=C/C=C/C=C/C=C/C=C/C=C/C=C/[C@H](O[C@@H]2O[C@H](C)[C@@H](O)[C@H](N)[C@@H]2O)C[C@@H]2O[C@](O)(C[C@@H](O)C[C@@H](O)[C@H](O)CC[C@@H](O)C[C@@H](O)CC(=O)O[C@H]1C)C[C@H](O)[C@H]2C(=O)O` [AB, amphotericin B] here?
A: 0.25 µg/mL

Q: What does the source list for `Cn1c(=O)c2c(ncn2C)n(C)c1=O` [Caffeine, reference compound]?
A: Papp at 5 min (in vitro [2]): 20 ×10⁻⁶ cm/s; Papp at 15 min (in vitro [2]): 25 ×10⁻⁶ cm/s; Papp at 30 min (in vitro [2]): 25 ×10⁻⁶ cm/s

Q: Which results are given for `CC[C@H](C)C[C@H](C)CCCCCCCCC(=O)N[C@H]1C[C@@H](O)[C@@H](NCCN)NC(=O)[C@@H]2[C@@H](O)CCN2C(=O)[C@H]([C@H](O)CCN)NC(=O)[C@H]([C@H](O)[C@@H](O)c2ccc(O)cc2)NC(=O)[C@@H]2C[C@@H](O)CN2C(=O)[C@H]([C@@H](C)O)NC1=O` [Caspo, capsofungin]?
A: MIC (Candida krusei): 1 µg/mL; MIC (Candida albicans A39): 0.12 µg/mL; MIC (Candida krusei ATCC 6258): 1 µg/mL; MIC (Candida albicans 3022): 0.06 µg/mL

Q: For `O=C(N/N=C/c1cc(Br)ccc1O)c1cccc(Br)c1` [D2], which IC50 (J774) is on record?
A: 16 µg/mL (≈ 40.2 µM)

Q: What about the IC50 (A549) of the same compound?
A: 16 µg/mL (≈ 40.2 µM)

Q: And the MIC80 (C. neoformans [3]; [8])?
A: 0.25 µg/mL (≈ 0.628 µM)

Q: What about the MIC80 (C. neoformans [3]; [9]) of the same compound?
A: 0.25 µg/mL (≈ 0.628 µM)

Q: What about the IC50 (HepG2) of the same compound?
A: 16 µg/mL (≈ 40.2 µM)

Q: What about the “K100*” value (C. neoformans [4]) of the same compound?
A: 0.12 µg/mL

Q: Which results are given for `O=C(N/N=C/c1cc(Br)ccc1O)c1cc(Br)cc(Br)c1O` [D17]?
A: IC50 (J774): 16 µg/mL (≈ 32.5 µM); IC50 (A549): 16 µg/mL (≈ 32.5 µM); MIC80 (C. neoformans [3]; [8]): 0.5 µg/mL (≈ 1.01 µM); MIC80 (C. neoformans [3]; [9]): 0.5 µg/mL (≈ 1.01 µM); IC50 (HepG2): 16 µg/mL (≈ 32.5 µM); K100* (C. neoformans [4]): 0.5 µg/mL; time to kill C. neoformans (C. neoformans [4]; time-kill assay): 6 h

Q: With `C[C@H]1O[C@@H](O[C@H]2[C@@H](O)C[C@H](O[C@H]3[C@@H](O)C[C@H](O[C@H]4CC[C@@]5(C)[C@H](CC[C@@H]6[C@@H]5C[C@@H](O)[C@]5(C)[C@@H](C7=CC(=O)OC7)CC[C@]65O)C4)O[C@@H]3C)O[C@@H]2C)C[C@H](O)[C@@H]1O` [Digoxin, reference compound] as the compound, how does the Papp A→B at 2 h, 5 μM (Caco-2 permeability; Caco-2, pH 7.4) read?
A: 0.61 ×10⁻⁶ cm/s

Q: What about the Papp B→A at 2 h, 5 μM (Caco-2 permeability; Caco-2, pH 7.4) of the same compound?
A: 20.2 ×10⁻⁶ cm/s

Q: And the efflux ratio at 2 h, 5 μM (Caco-2 permeability; Caco-2, pH 7.4, Efflux ratio)?
A: 33.2

Q: And the recovery at 2 h, 5 μM (Caco-2 permeability; Caco-2, pH 7.4, Recovery AP→BL)?
A: 82.7%

Q: And the recovery at 2 h, 5 μM (Caco-2 permeability; Caco-2, pH 7.4, Recovery BL→AP)?
A: 95.6%

Q: What does the source list for `CCC(C)n1ncn(-c2ccc(N3CCN(c4ccc(OCC5COC(Cn6cncn6)(c6ccc(Cl)cc6Cl)O5)cc4)CC3)cc2)c1=O` (stereo not shown) [Itra, itraconazole]?
A: MIC (Candida krusei): 1 µg/mL; MIC (Candida albicans A39): 0.06 µg/mL; MIC [5]: 0.25 µg/mL; MIC [1]: 0.06 µg/mL; MIC (Candida krusei ATCC 6258): 1 µg/mL; MIC (Candida albicans 3022): 2 µg/mL

Q: For `CC(C)NCC(O)COc1cccc2ccccc12` (stereo not shown) [Propranolol], which Papp A→B at 2 h, 5 μM (in vitro [6]; Caco-2, pH 7.4) is on record?
A: 34.4 ×10⁻⁶ cm/s

Q: And the Papp B→A at 2 h, 5 μM (in vitro [6]; Caco-2, pH 7.4)?
A: 19.5 ×10⁻⁶ cm/s

Q: And the efflux ratio at 2 h, 5 μM (in vitro [6]; Caco-2, pH 7.4)?
A: 0.57

Q: What about the recovery at 2 h, 5 μM (in vitro [6]; Caco-2, pH 7.4, Recovery AP→BL) of the same compound?
A: 90.7%

Q: What about the recovery at 2 h, 5 μM (in vitro [6]; Caco-2, pH 7.4, Recovery BL→AP) of the same compound?
A: 95.5%

Q: Which MIC (Candida krusei) does the source give for `OC(Cn1cncn1)(Cn1cncn1)c1ccc(F)cc1F` [fluconazole] here?
A: 16 µg/mL

Q: What about the MIC (Candida albicans A39) of the same compound?
A: 2.5 µg/mL

Q: What about the MIC [5] of the same compound?
A: > 10 µg/mL

Q: And the MIC [1]?
A: 2.5 µg/mL

Q: What about the MIC (Candida krusei ATCC 6258) of the same compound?
A: > 16 µg/mL

Q: What about the mice that survived (C. neoformans [7]; i.p. 1.2 mg/kg/day, treatment immediately after intranasal infection, 40 days) of the same compound?
A: 60%

Q: What about the “mice that survived until the end of the experiment” value (C. neoformans [7]; i.p. 1.2 mg/kg/day, treatment started 5 days after infection) of the same compound?
A: 20%

Q: What about the “mice that survived until the end of the experiment” value (C. neoformans [7]; oral 20 mg/kg/day starting the day of infection) of the same compound?
A: 20%

Q: What about the “CFU in brains and lungs” value (C. neoformans [7]; oral 20 mg/kg/day, 32 days posttreatment, data not shown) of the same compound?
A: numerous colonies in the lungs and brain

Q: And the “time within which mice died” value (C. albicans)?
A: ≤ 12 days

Q: And the MIC (Candida albicans 3022)?
A: > 16 µg/mL

Q: For `C[C@@H](c1ncncc1F)[C@](O)(Cn1cncn1)c1ccc(F)cc1F` [voriconazole, reference compound], which “lung fungal burden (CFU) of surviving mice” value (Aspergillus fumigatus; at the endpoint, data not shown) is on record?
A: showed evidence of colonies

Q: What about the mice that survived (Aspergillus fumigatus; immunosuppressed mice, after 15 days) of the same compound?
A: 40%

Q: And the MIC [5]?
A: 1 µg/mL

Q: What about the MIC [1] of the same compound?
A: 4 µg/mL
